The subject of this test is pituitaries. Briefly: In vitro growth hormone release study (incubated rat pituitaries, GH by RIA). The following applies: mean of 9 assays ± SEM. It counts as cell-based. On the procedure: Female rats of the CD-1 strain were housed in a constant temperature room at 24° C. with 14 hours light and 10 hours darkness. The rats were fed Purina brand rat chow ab libitum. All studies were started between 0800 and 1000 hours.
Pituitaries were removed from 20 day old female rats. In each polytetrafluoroethylene beaker (10 ml) was incubated two pituitaries at 36° C. in 1 ml of lactated Ringer's solution in a Dubnoff Shaker (90 cycles/min.). All medium in each beaker was removed each hour (e.g., P1, P2, I3, I4, I5) and then fresh medium was added back to each beaker. Each medium removed was assayed for GH, in duplicate, by a standard radioimmunoassay (RIA).
The growth hormone agonist of Example 1 was not added to the incubation mediums employed during the first hour of the incubation period (P1) or to the incubation mediums employed during the second hour of the incubation period (P2). The growth hormone agonist of Example 1 was dissolved in dimethylsulfoxide (DMSO; 10:1, agonist:DMSO), added to each incubation medium employed during the third hour of the incubation period (I3), to each medium employed during the fourth hour of the incubation period (I4), and to each medium employed during the fifth hour of the incubation period (I5). The release of growth hormone was recorded as ΔGH and calculated by subtracting the amount of GH released at P2 from that released at I3, I4, and I5. The agonist activity was determined from the release at I3, I4, and I5.

Square brackets hold non-standard residues; d marks the D form. Peptide text beside a SMILES is read from it.

Results on two compounds are retold here after US4410512A, “Combinations having synergistic pituitary growth hormone releasing activity” (Beckman Instruments, Inc., priority 1981, dated 1983).

With `C[C@H](NC(=O)[C@@H](Cc1c[nH]c2ccccc12)NC(=O)[C@@H](N)Cc1c[nH]cn1)C(=O)N[C@@H](Cc1c[nH]c2ccccc12)C(=O)N[C@H](Cc1ccccc1)C(=O)N[C@@H](CCCCN)C(N)=O` [H2 -His-D-Trp-Ala-Trp-D-Phe-Lys-NH2] (H-H[dW]AW[dF]K-NH2), the ΔGH by setting is: (peptide dosage 1 ng/ml incubation medium) 887 ± 98 ng/ml incubation medium; (peptide dosage 3 ng/ml incubation medium) 821 ± 138 ng/ml incubation medium; (peptide dosage 10 ng/ml incubation medium) 2,759 ± 315 ng/ml incubation medium.

With `C[C@H]1CCC[C@H](O)CCCCCc2cc(O)cc(O)c2C(=O)O1` [Zeranol, zeranol], the ΔGH reads like this: (zeranol dosage 300 ng/ml incubation medium, pituitaries of 20 day old female rats, I3-I5 minus P2) 83 ± 63 ng/ml incubation medium; (zeranol dosage 3,000 ng/ml incubation medium) 87 ± 59 ng/ml incubation medium; (zeranol dosage 30,000 ng/ml incubation medium) 683 ± 187 ng/ml incubation medium; (zeranol dosage 100,000 ng/ml incubation medium) -133 ± 98 ng/ml incubation medium.
